IC50 data for 17 compounds are collected here from US8129371B2, “Thienopyrimidine and pyrazolopyrimidine compounds and their use as mTOR kinase and PI3 kinase inhibitors” (Wyeth LLC, priority 2007, dated 2012).

One test deals with T1, Human mTOR (FLAG-TOR) (Homo sapiens, UniProt P42345).
T1 construct: FLAG
Briefly: Human mTOR kinase assay with purified enzyme, DELFIA format. Type of test: biochemical. An outline of the steps: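 Purified FLAG-mTOR in HEPES pH 7.4 buffer with 10 mM MnCl2 was preincubated with inhibitor and reacted 2 h at room temperature with His6-S6K substrate, then stopped with EDTA/EGTA. Phospho-T389 S6K detected by DELFIA with Eu-labelled antibody (40 ng/mL) after plate capture; inhibition computed from signal.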

In test [1] the target is T2, PI3K (Homo sapiens, UniProt P42336).
T2 construct: PI3 Kinase α IC50; other: PI3 Kinase α; other: PI3 Kinase α isoform, fluorescence polarization
Briefly: Fluorescence polarization assay for PI3K. The test is classed as biochemical. To be noted: read-out: PI3 Kinase α IC50. An outline of the steps: (§1)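 PI3K was preincubated with compound (final DMSO 1%), and the reaction was started with PIP2/ATP substrate and run 30–60 min. It was stopped with a detector mix giving 10 nM red probe and 70 nM GST-GRP.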
A general note: Polarisation of emitted light reports the rotation of a fluorescent probe.

In test [2] the target is T3, PI3K (Homo sapiens, UniProt P48736).
T3 construct: PI3 Kinase γ IC50; other: PI3 Kinase γ; other: PI3 Kinase γ isoform, fluorescence polarization
As to the kind of experiment: Fluorescence polarization assay for PI3K. Type of test: biochemical. To be noted: read-out: PI3 Kinase γ IC50. The procedure, abridged:
as §1

The subject of a further test is prostate line LNCap. As to the kind of experiment: In vitro cell culture growth assay (MTS), LNCap. The test is classed as cell-based. To be noted: Homo sapiens, LNCaP, 72 h, LNCap cells, three days after drug treatment. The procedure, abridged: (§2)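 Following a one-day attachment period, cells received inhibitors for 3 days. MTS metabolism by viable cells was quantified at 490 nm absorbance and converted to percent of same-plate vehicle control growth.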

In another test the test system is breast line MDA468. Briefly: In vitro cell culture growth assay (MTS), MDA468. Type of test: cell-based. To be noted: Homo sapiens, 72 h, MDA468 cells, three days after drug treatment. The procedure, abridged:
as §2

Where [3] appears, read: purified human mTOR enzyme, DELFIA format.
The mark [4] stands for this setting: PI3 Kinase α isoform, fluorescence polarization.
Where [5] appears, read: PI3 Kinase γ isoform, fluorescence polarization.

Like-named read-outs stand apart in the source and are kept apart here.

T2 sequence (P42336 whole entry, canonical isoform): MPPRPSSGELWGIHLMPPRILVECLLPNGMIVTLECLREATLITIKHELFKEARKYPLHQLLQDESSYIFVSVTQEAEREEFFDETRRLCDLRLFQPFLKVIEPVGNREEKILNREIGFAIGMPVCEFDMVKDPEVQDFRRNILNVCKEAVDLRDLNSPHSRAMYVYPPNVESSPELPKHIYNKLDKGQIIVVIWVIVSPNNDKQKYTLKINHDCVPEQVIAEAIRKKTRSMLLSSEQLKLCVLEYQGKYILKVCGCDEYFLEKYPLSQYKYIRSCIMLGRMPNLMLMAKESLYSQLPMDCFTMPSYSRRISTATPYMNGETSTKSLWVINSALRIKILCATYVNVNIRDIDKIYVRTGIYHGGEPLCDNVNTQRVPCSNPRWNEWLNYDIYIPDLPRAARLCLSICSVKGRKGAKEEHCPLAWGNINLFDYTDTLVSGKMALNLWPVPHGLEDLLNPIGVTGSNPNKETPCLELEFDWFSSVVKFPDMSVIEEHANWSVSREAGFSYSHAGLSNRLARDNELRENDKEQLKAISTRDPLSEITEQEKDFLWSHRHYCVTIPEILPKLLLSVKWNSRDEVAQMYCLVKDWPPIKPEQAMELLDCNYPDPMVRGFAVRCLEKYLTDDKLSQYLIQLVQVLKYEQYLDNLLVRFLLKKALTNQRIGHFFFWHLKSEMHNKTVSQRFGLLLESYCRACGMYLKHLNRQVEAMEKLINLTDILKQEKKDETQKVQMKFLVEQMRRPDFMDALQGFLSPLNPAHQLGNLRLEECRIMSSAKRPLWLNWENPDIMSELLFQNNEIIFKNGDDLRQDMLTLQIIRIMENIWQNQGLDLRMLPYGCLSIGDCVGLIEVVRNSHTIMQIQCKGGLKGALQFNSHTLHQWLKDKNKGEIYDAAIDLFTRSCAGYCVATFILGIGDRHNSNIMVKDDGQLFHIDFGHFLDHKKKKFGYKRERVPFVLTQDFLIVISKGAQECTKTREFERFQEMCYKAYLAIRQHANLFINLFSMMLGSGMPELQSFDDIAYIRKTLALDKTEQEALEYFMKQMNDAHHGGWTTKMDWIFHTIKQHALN
T3 sequence (P48736 whole entry, canonical isoform): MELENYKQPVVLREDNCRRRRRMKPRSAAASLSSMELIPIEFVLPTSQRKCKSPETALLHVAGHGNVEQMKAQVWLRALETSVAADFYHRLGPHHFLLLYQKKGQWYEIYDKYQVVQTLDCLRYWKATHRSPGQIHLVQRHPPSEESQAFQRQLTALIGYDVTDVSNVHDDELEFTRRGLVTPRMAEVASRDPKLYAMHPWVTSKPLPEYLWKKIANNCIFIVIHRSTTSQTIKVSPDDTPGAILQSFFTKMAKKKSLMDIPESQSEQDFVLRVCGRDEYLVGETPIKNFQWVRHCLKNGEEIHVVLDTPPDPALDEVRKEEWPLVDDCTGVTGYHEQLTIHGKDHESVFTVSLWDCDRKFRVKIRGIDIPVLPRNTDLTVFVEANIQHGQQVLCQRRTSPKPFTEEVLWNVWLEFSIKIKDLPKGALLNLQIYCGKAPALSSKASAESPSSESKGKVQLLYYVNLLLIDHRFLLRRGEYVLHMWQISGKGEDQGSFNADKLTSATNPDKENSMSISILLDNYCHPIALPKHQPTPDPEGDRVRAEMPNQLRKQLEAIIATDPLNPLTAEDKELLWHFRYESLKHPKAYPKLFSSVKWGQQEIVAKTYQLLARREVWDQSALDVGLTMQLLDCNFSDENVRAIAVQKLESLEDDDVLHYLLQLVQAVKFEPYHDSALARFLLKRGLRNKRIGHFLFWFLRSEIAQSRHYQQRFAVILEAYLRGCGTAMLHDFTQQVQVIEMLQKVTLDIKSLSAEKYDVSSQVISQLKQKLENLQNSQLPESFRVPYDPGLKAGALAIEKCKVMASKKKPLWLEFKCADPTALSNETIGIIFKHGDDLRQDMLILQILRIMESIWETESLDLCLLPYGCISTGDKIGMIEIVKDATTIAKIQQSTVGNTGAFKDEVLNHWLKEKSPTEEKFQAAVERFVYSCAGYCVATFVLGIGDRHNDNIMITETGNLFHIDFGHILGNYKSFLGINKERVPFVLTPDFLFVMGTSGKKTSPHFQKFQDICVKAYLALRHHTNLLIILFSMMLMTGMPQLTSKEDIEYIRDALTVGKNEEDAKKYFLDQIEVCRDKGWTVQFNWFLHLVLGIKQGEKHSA

With `CC(C)OC(=O)N1CCC(n2ncc3c(N4CC5CCC(C4)O5)nc(-c4ccc(NC(=O)Nc5cccnc5)cc4)nc32)CC1` [Example 72, isopropyl 4-[4-(8-oxa-3-azabicyclo[3.2.1]oct-3-yl)-6-{4-[(pyridin-3-ylcarbamoyl)amino]phenyl}-1H-pyrazolo[3,4-d]pyrimidin-1-yl]piperidine-1-carboxylate], the IC50 (commonly the midpoint of a concentration-inhibition curve) was found to be 0.2 nM on Human mTOR (FLAG-TOR); 324 nM at PI3K [1] (PI3 Kinase α); 2690 nM at PI3K [2] (PI3 Kinase γ); 1.7 nM in the test on prostate line LNCap; 36 nM in the test with breast line MDA468.
On to `CCn1ncc2c(N3CC4CCC(C3)O4)nc(-c3ccc(NC(=O)Nc4ccc(N5CCN(C)CC5)nc4)cc3)nc21` [Example 185, 1-{4-[1-ethyl-4-(8-oxa-3-azabicyclo[3.2.1]oct-3-yl)-1H-pyrazolo[3,4-d]pyrimidin-6-yl]phenyl}-3-[6-(4-methylpiperazin-1-yl)pyridin-3-yl]urea], for which the IC50 was 0.735 nM on Human mTOR (FLAG-TOR); 196 nM at PI3K [1] (PI3 Kinase α); 2270 nM on PI3K [2] (PI3 Kinase γ); less than 1 nM in the test on prostate line LNCap; 1 nM with breast line MDA468.
As for `CCNC(=O)Nc1ccc(-c2nc(N3CC4CCC(C3)O4)c3cnn(C4CCN(C(=O)OCC)CC4)c3n2)cc1` [Example 31, ethyl 4-[6-{4-[(ethylcarbamoyl)amino]phenyl}-4-(8-oxa-3-azabicyclo[3.2.1]oct-3-yl)-1H-pyrazolo[3,4-d]pyrimidin-1-yl]piperidine-1-carboxylate], the IC50 on Human mTOR (FLAG-TOR) was 0.36 nM; on PI3K [1] (PI3 Kinase α) it was 1890 nM; at PI3K [2] (PI3 Kinase γ), 11000 nM; in the test on prostate line LNCap, 0.8 nM; in the test with breast line MDA468, 70 nM.
Regarding `CN(C)CCn1ncc2c(N3CC4CCC(C3)O4)nc(-c3ccc(NC(=O)OCCO)cc3)nc21` [Example 158, 2-hydroxyethyl (4-{1-[2-(dimethylamino)ethyl]-4-(8-oxa-3-azabicyclo[3.2.1]oct-3-yl)-1H-pyrazolo[3,4-d]pyrimidin-6-yl}phenyl)carbamate], the IC50 at Human mTOR (FLAG-TOR) is 27 nM; at PI3K [1] (PI3 Kinase α), 3520 nM; on PI3K [2] (PI3 Kinase γ), more than 10000 nM; in the test on prostate line LNCap, 680 nM; in the test with breast line MDA468, 5000 nM.
The like results for `CCNC(=O)Nc1ccc(-c2nc(N3CC4CCC(C3)O4)c3cnn(CC)c3n2)cc1` [Example 41, 1-ethyl-3-{4-[1-ethyl-4-(8-oxa-3-azabicyclo[3.2.1]oct-3-yl)-1H-pyrazolo[3,4-d]pyrimidin-6-yl]phenyl}urea] were, in that order, 0.47 nM, 1250 nM, 12000 nM, 16 nM and 80 nM.
As to `CCNC(=O)Nc1ccc(-c2nc(N3CC4CCC(C3)O4)c3cnn(C4CCN(C(=O)C(C)C)CC4)c3n2)cc1` [Example 83, 1-ethyl-3-{4-[1-(1-isobutyrylpiperidin-4-yl)-4-(8-oxa-3-azabicyclo[3.2.1]oct-3-yl)-1H-pyrazolo[3,4-d]pyrimidin-6-yl]phenyl}urea], the IC50 against Human mTOR (FLAG-TOR) was 0.76 nM; on PI3K [1] (PI3 Kinase α) it was 2350 nM; at PI3K [2] (PI3 Kinase γ) it was more than 10000 nM; with prostate line LNCap, 40 nM; in the test with breast line MDA468 it was 240 nM.
Regarding `CCn1ncc2c(N3CC4CCC(C3)O4)nc(-c3ccc(NC(=O)Nc4ccc(N5CCOCC5)nc4)cc3)nc21` [Example 184, 1-{4-[1-ethyl-4-(8-oxa-3-azabicyclo[3.2.1]oct-3-yl)-1H-pyrazolo[3,4-d]pyrimidin-6-yl]phenyl}-3-(6-morpholin-4-ylpyridin-3-yl)urea], the IC50 against Human mTOR (FLAG-TOR) stood at 0.295 nM; at PI3K [1] (PI3 Kinase α) it was 2150 nM; on PI3K [2] (PI3 Kinase γ), 7760 nM; in the test with prostate line LNCap, 1 nM; with breast line MDA468, 8 nM.
Consider `CS(=O)(=O)N1CCN(Cc2cc3nc(-c4ccc(NC(=O)NC5CC5)cc4)nc(N4CC5CCC(C4)O5)c3s2)CC1` [Example 431, 1-cyclopropyl-3-{4-[6-{[4-(methylsulfonyl)piperazin-1-yl]methyl}-4-(8-oxa-3-azabicyclo[3.2.1]oct-3-yl)thieno[3,2-d]pyrimidin-2-yl]phenyl}urea], for which the IC50 at Human mTOR (FLAG-TOR) (setting [3]) was determined as 1.01 nM; at PI3K [1] (setting [4]), 179 nM; on PI3K [2] (setting [5]), 1530 nM; with prostate line LNCap it was 32 nM; in the test with breast line MDA468, 200 nM.
Regarding `CN(C)CCn1ncc2c(N3CC4CCC(C3)O4)nc(-c3ccc(NC(=O)Nc4ccncc4)cc3)nc21` [Example 162, 1-(4-{1-[2-(dimethylamino)ethyl]-4-(8-oxa-3-azabicyclo[3.2.1]oct-3-yl)-1H-pyrazolo[3,4-d]pyrimidin-6-yl}phenyl)-3-pyridin-4-ylurea], the IC50 was found to be 1.2 nM against Human mTOR (FLAG-TOR); 173 nM at PI3K [1] (PI3 Kinase α); 482 nM at PI3K [2] (PI3 Kinase γ); 50 nM in the test with prostate line LNCap; 200 nM in the test with breast line MDA468.
For `CN1CCN(C2CCC(n3ncc4c(N5CC6CCC(C5)O6)nc(-c5ccc(NC(=O)Nc6cccnc6)cc5)nc43)CC2)CC1` (stereo not shown) [Example 330, 1-(4-{1-[4-(4-methylpiperazin-1-yl)cyclohexyl]-4-(8-oxa-3-azabicyclo[3.2.1]oct-3-yl)-1H-pyrazolo[3,4-d]pyrimidin-6-yl}phenyl)-3-pyridin-3-ylurea], the IC50 against Human mTOR (FLAG-TOR) (setting [3]) was found to be 0.405 nM; on PI3K [1] (setting [4]), 238 nM; at PI3K [2] (setting [5]), 1850 nM; in the test on prostate line LNCap it was 7 nM; in the test on breast line MDA468, 60 nM.
Regarding `COCC(COC)n1ncc2c(N3CC4CCC(C3)O4)nc(-c3ccc(NC(=O)Nc4cccnc4)cc3)nc21` [Example 326, 1-(4-{1-[2-methoxy-1-(methoxymethyl)ethyl]-4-(8-oxa-3-azabicyclo[3.2.1]oct-3-yl)-1H-pyrazolo[3,4-d]pyrimidin-6-yl}phenyl)-3-pyridin-3-ylurea], the IC50 on Human mTOR (FLAG-TOR) (setting [3]) is 2.65 nM; at PI3K [1] (setting [4]), 1180 nM; on PI3K [2] (setting [5]), 9530 nM; with prostate line LNCap it was 30 nM; in the test with breast line MDA468, 150 nM.
As to `CNC(=O)Nc1ccc(-c2nc(N3CC4CCC(C3)O4)c3cnn(CC(F)(F)F)c3n2)cc1` [Example 1, 1-methyl-3-{4-[4-(8-oxa-3-azabicyclo[3.2.1]oct-3-yl)-1-(2,2,2-trifluoroethyl)-1H-pyrazolo[3,4-d]pyrimidin-6-yl]phenyl}urea], the IC50 was 0.63 nM against Human mTOR (FLAG-TOR); 1620 nM on PI3K [1] (PI3 Kinase α); more than 10000 nM on PI3K [2] (PI3 Kinase γ); 38 nM with prostate line LNCap; 46 nM in the test with breast line MDA468.
For `O=C(Nc1ccc(-c2nc(N3C4CCC3COC4)c3cnn(CC(F)(F)F)c3n2)cc1)Nc1ccc(N2CCNCC2)cc1` [Example 318, 1-{4-[4-(3-oxa-8-azabicyclo[3.2.1]oct-8-yl)-1-(2,2,2-trifluoroethyl)-1H-pyrazolo[3,4-d]pyrimidin-6-yl]phenyl}-3-(4-piperazin-1-ylphenyl)urea], the IC50 on Human mTOR (FLAG-TOR) (setting [3]) is 0.19 nM; on PI3K [1] (setting [4]), 173 nM; on PI3K [2] (setting [5]), 2270 nM; in the test with prostate line LNCap, less than 1 nM; with breast line MDA468, 1 nM.
With `CC(C)n1ncc2c(N3CC4CCC(C3)O4)nc(-c3ccc(NC(=O)Nc4cccnc4)cc3)nc21` [Example 148, 1-{4-[1-isopropyl-4-(8-oxa-3-azabicyclo[3.2.1]oct-3-yl)-1H-pyrazolo[3,4-d]pyrimidin-6-yl]phenyl}-3-pyridin-3-ylurea], the IC50 against Human mTOR (FLAG-TOR) is 0.064 nM; on PI3K [1] (PI3 Kinase α), 49 nM; at PI3K [2] (PI3 Kinase γ) it was 781 nM; in the test on prostate line LNCap it was less than 1 nM; in the test with breast line MDA468, 9 nM.
On to `CC(C)C(=O)N1CCC(n2ncc3c(N4CC5CCC(C4)O5)nc(-c4ccc(NC(=O)NC5CC5)cc4)nc32)CC1` [Example 86, 1-cyclopropyl-3-{4-[1-(1-isobutyrylpiperidin-4-yl)-4-(8-oxa-3-azabicyclo[3.2.1]oct-3-yl)-1H-pyrazolo[3,4-d]pyrimidin-6-yl]phenyl}urea], for which the IC50 on Human mTOR (FLAG-TOR) was 0.66 nM; at PI3K [1] (PI3 Kinase α), 4240 nM; on PI3K [2] (PI3 Kinase γ), more than 10000 nM; in the test on prostate line LNCap it was 80 nM; with breast line MDA468, 350 nM.
For `COC1CCC(n2ncc3c(N4CC5CCC(C4)O5)nc(-c4ccc(NC(=O)Nc5ccc(OCCN(C)C)cc5)cc4)nc32)CC1` (stereo not shown) [Example 310, 1-{4-[2-(dimethylamino)ethoxy]phenyl}-3-{4-[1-(4-methoxycyclohexyl)-4-(8-oxa-3-azabicyclo[3.2.1]oct-3-yl)-1H-pyrazolo[3,4-d]pyrimidin-6-yl]phenyl}urea], the half-maximal inhibitory concentration (IC50) at Human mTOR (FLAG-TOR) (setting [3]) is 0.495 nM; at PI3K [1] (setting [4]), 221 nM; at PI3K [2] (setting [5]), 2430 nM; in the test on prostate line LNCap, less than 1 nM; with breast line MDA468, 1 nM.
For the compound `O=C(Nc1ccc(-c2nc(N3CC4CCC(C3)O4)c3cnn(CCF)c3n2)cc1)NC1CC1` [Example 248, 1-cyclopropyl-3-{4-[1-(2-fluoroethyl)-4-(8-oxa-3-azabicyclo[3.2.1]oct-3-yl)-1H-pyrazolo[3,4-d]pyrimidin-6-yl]phenyl}urea], the IC50 at Human mTOR (FLAG-TOR) is 0.765 nM; at PI3K [1] (PI3 Kinase α), 1820 nM; on PI3K [2] (PI3 Kinase γ) it was more than 10000 nM; with prostate line LNCap, 90 nM; in the test on breast line MDA468 it was 500 nM.
